Test results published in patent US9539260B2, “Dihydro-benzo-oxazine and dihydro-pyrido-oxazine derivatives” (Novartis AG, priority 2012, dated 2017).

Assays:
PI3K alpha = PI3K alpha (Homo sapiens (Human), UniProt P42336); assay: Enzymatic PI3K alpha isoform inhibition (lipid kinase activity, Kinase-Glo luminescence); type: biochemical; settings: Enzymatic assay
How it was run: (§1)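 ATP-depletion format: 10 nM PI3K with 5 μg/mL phosphatidylinositol and 2 μM ATP, run to ~50% ATP consumption, then Kinase-Glo added and remaining ATP read by luminescence after 5 min. IC50 from 4-parameter logistic fit, typically over 8 concentrations 10–0.003 μM.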

PI3K delta = PI3K delta (Homo sapiens (Human), UniProt O00329); assay: Enzymatic PI3K delta isoform inhibition (lipid kinase activity, Kinase-Glo luminescence); type: biochemical; settings: Enzymatic assay
How it was run: as §1

Sequence of PI3K alpha (P42336 other isoform, or with tags, fused parts or gaps): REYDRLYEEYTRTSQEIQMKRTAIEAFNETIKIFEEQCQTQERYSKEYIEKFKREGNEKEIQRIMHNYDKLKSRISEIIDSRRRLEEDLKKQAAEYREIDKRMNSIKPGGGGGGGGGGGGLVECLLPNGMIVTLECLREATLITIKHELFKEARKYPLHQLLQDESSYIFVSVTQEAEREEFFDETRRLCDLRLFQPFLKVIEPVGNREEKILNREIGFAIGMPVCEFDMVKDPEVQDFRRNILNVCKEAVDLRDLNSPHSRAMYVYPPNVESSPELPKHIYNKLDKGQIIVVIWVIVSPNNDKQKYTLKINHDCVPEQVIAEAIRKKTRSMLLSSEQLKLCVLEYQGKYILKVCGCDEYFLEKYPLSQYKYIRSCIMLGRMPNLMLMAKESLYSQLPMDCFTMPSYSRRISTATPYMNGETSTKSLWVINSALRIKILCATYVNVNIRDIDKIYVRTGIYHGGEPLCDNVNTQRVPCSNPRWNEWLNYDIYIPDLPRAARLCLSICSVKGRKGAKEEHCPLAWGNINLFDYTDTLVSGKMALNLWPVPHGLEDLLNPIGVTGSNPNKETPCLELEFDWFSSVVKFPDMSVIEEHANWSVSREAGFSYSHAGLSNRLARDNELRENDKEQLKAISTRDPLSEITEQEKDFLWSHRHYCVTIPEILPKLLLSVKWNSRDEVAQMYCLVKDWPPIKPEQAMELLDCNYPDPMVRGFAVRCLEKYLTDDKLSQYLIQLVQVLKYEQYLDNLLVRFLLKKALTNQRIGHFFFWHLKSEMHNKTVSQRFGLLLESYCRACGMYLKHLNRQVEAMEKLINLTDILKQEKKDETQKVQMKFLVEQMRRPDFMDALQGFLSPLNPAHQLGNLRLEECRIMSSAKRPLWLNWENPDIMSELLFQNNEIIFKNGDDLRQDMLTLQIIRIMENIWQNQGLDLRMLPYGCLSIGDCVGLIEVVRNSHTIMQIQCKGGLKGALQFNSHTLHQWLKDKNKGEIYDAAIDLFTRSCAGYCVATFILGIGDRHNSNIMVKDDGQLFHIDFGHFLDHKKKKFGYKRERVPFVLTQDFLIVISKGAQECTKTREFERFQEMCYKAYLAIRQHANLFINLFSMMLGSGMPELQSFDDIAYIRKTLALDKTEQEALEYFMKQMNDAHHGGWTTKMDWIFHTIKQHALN
Sequence of PI3K delta (O00329 other isoform, or with tags, fused parts or gaps linker GGGGGG): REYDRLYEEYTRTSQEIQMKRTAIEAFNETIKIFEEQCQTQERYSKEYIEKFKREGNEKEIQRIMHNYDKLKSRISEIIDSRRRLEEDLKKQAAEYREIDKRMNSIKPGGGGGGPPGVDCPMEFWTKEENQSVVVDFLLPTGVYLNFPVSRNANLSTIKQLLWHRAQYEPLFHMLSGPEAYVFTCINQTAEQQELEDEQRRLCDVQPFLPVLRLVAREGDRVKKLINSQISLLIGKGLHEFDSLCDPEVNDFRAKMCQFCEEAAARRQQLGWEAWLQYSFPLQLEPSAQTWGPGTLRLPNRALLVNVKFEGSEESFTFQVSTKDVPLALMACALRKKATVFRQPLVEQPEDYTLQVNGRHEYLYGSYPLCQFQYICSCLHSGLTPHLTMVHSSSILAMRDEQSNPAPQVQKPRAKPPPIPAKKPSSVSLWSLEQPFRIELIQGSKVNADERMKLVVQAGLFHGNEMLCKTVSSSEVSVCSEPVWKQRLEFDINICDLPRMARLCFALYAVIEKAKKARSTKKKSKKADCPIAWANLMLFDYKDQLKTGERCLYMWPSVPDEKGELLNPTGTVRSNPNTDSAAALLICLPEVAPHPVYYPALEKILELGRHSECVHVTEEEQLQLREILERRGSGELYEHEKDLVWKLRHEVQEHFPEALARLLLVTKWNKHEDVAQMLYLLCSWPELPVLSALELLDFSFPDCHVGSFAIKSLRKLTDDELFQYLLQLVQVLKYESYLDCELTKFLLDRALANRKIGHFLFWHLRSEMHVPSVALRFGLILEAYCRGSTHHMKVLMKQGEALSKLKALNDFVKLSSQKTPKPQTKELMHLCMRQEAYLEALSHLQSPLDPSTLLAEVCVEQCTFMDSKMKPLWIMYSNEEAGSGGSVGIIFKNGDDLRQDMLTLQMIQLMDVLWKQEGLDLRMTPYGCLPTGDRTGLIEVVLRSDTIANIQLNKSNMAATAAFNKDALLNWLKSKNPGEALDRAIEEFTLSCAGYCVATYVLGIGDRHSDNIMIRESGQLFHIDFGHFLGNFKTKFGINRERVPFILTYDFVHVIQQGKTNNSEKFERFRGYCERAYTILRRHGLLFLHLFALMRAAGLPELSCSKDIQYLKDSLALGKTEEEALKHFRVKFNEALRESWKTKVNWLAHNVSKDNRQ

Row | IC50 (PI3K alpha) | IC50 (PI3K delta) | SMILES
1 | 658 nM | 32 nM | COc1ncc(N2CCOc3ccc(O[C@H]4CCN(C(=O)C5CCC(=O)N5)C4)cc32)cc1C#N (stereo partly drawn) [Example C23, 2-Methoxy-5-{6-[(S)-1-(5-oxo-pyrrolidine-2-carbonyl)-pyrrolidin-3-yloxy]-2,3-dihydro-benzo[1,4]oxazin-4-yl}-nicotinonitrile]
2 | 560 nM | 3 nM | COc1ncc(N2CCOc3ccc(O[C@H]4CCN(C(=O)C5COCCO5)C4)cc32)cc1C#N (stereo partly drawn) [Example C24, 5-{6-[(S)-1-([1,4]Dioxane-2-carbonyl)-pyrrolidin-3-yloxy]-2,3-dihydro-benzo[1,4]oxazin-4-yl}-2-methoxy-nicotinonitrile]
3 | 474 nM | 12.5 nM | COc1ncc(N2CCOc3ccc(O[C@H]4CCN(C(=O)C5COCCO5)C4)cc32)cc1C#N (stereo partly drawn) [Example C25, 5-{6-[(S)-1-([1,4]Dioxane-2-carbonyl)-pyrrolidin-3-yloxy]-2,3-dihydro-benzo[1,4]oxazin-4-yl}-2-methoxy-nicotinonitrile]
4 | 6950 nM | 3220 nM | COc1ncc(N2CCOc3ccc(O[C@H]4CCN(C(=O)C5CCCOC5)C4)cc32)cc1C#N (stereo partly drawn) [Example C26, 2-Methoxy-5-{6-[(S)-1-(tetrahydro-pyran-3-carbonyl)-pyrrolidin-3-yloxy]-2,3-dihydro-benzo[1,4]oxazin-4-yl}-nicotinonitrile]
5 | 2740 nM | 149 nM | COc1ccc(N2CCOc3ccc(O[C@H]4CCN(C(=O)CN5CCOCC5)C4)cc32)cn1 [Example D2, 1-{(S)-3-[4-(6-Methoxy-pyridin-3-yl)-3,4-dihydro-2H-benzo[1,4]oxazin-6-yloxy]-pyrrolidin-1-yl}-2-morpholin-4-yl-ethanone]
6 | 4420 nM | 219 nM | COc1ccc(N2CCOc3ccc(O[C@H]4CCN(C(=O)CN(C)C)C4)cc32)cn1 [Example D3, 2-Dimethylamino-1-{(S)-3-[4-(6-methoxy-pyridin-3-yl)-3,4-dihydro-2H-benzo[1,4]oxazin-6-yloxy]-pyrrolidin-1-yl}-ethanone]
7 | 802 nM | 42 nM | COc1ncc(N2CCOc3ccc(O[C@H]4CCN(C(=O)C5CCN(C(C)=O)CC5)C4)cc32)cc1C#N [Example D5, 5-{6-[(S)-1-(1-Acetyl-piperidine-4-carbonyl)-pyrrolidin-3-yloxy]-2,3-dihydro-benzo[1,4]oxazin-4-yl}-2-methoxy-nicotinonitrile]
8 | 650 nM | 9 nM | COc1ncc(N2CCOc3ccc(O[C@H]4CCN(C(=O)CN(C)C)C4)cc32)cc1C#N [Example D6, 5-{6-[(S)-1-(2-Dimethylamino-acetyl)-pyrrolidin-3-yloxy]-2,3-dihydro-benzo[1,4]oxazin-4-yl}-2-methoxy-nicotinonitrile]
9 | 494 nM | 15 nM | COc1ncc(N2CCOc3ccc(O[C@H]4CCN(C(=O)CC(C)(C)C)C4)cc32)cc1C#N [Example D9, 5-{6-[(S)-1-(3,3-Dimethyl-butyryl)-pyrrolidin-3-yloxy]-2,3-dihydro-benzo[1,4]oxazin-4-yl}-2-methoxy-nicotinonitrile]
10 | 385 nM | 62 nM | COc1ncc(N2CCOc3ccc(O[C@H]4CCN(C(=O)CC(C)C)C4)cc32)cc1C#N [Example D10, 2-Methoxy-5-{6-[(S)-1-(3-methyl-butyryl)-pyrrolidin-3-yloxy]-2,3-dihydro-benzo[1,4]oxazin-4-yl}-nicotinonitrile]
11 | 442 nM | 19 nM | COC(=O)N1CC[C@H](Oc2ccc3c(c2)N(c2cnc(OC)c(C#N)c2)CCO3)C1 [Example D11, (S)-3-[4-(5-Cyano-6-methoxy-pyridin-3-yl)-3,4-dihydro-2H-benzo[1,4]oxazin-6-yloxy]-pyrrolidine-1-carboxylic acid methyl ester]
12 | 142 nM | < 3 nM | COCC(=O)N1CC[C@H](Oc2ccc3c(c2)N(c2cnc(OC)c(C#N)c2)CCO3)C1 [Example D12, 2-Methoxy-5-{6-[(S)-1-(2-methoxy-acetyl)-pyrrolidin-3-yloxy]-2,3-dihydro-benzo[1,4]oxazin-4-yl}-nicotinonitrile]
13 | 522 nM | 5 nM | COc1ncc(N2CCOc3ccc(O[C@H]4CCN(C(=O)C5CCCCC5)C4)cc32)cc1C#N [Example D13, 5-[6-((S)-1-Cyclohexanecarbonyl-pyrrolidin-3-yloxy)-2,3-dihydro-benzo[1,4]oxazin-4-yl]-2-methoxy-nicotinonitrile]
14 | 711 nM | 58 nM | COc1ncc(N2CCOc3ccc(O[C@H]4CCN(C(=O)C(C)(C)O)C4)cc32)cc1C#N [Example D15, 5-{6-[(S)-1-(2-Hydroxy-2-methyl-propionyl)-pyrrolidin-3-yloxy]-2,3-dihydro-benzo[1,4]oxazin-4-yl}-2-methoxy-nicotinonitrile]
15 | 503 nM | 7 nM | COc1ncc(N2CCOc3ccc(O[C@H]4CCN(C(=O)C5CCS(=O)(=O)CC5)C4)cc32)cc1C#N [Example D16, 5-{6-[(S)-1-(1,1-Dioxo-hexahydro-1lambda*6*-thiopyran-4-carbonyl)-pyrrolidin-3-yloxy]-2,3-dihydro-benzo[1,4]oxazin-4-yl}-2-methoxy-nicotinonitrile]
16 | 705 nM | 12 nM | COc1ncc(N2CCOc3ccc(O[C@H]4CCN(C(=O)c5ccc(=O)n(C)c5)C4)cc32)cc1C#N [Example D17, 2-Methoxy-5-{6-[(S)-1-(1-methyl-6-oxo-1,6-dihydro-pyridine-3-carbonyl)-pyrrolidin-3-yloxy]-2,3-dihydro-benzo[1,4]oxazin-4-yl}-nicotinonitrile]
17 | 281 nM | 19 nM | COc1ncc(N2CCOc3ccc(O[C@H]4CCN(C(=O)c5cocn5)C4)cc32)cc1C#N [Example D18, 2-Methoxy-5-{6-[(S)-1-(oxazole-4-carbonyl)-pyrrolidin-3-yloxy]-2,3-dihydro-benzo[1,4]oxazin-4-yl}-nicotinonitrile]
18 | 273 nM | 13 nM | COc1ncc(N2CCOc3ccc(O[C@H]4CCN(C(=O)c5ccn(C)c(=O)c5)C4)cc32)cc1C#N [Example D19, 2-Methoxy-5-{6-[(S)-1-(1-methyl-2-oxo-1,2-dihydro-pyridine-4-carbonyl)-pyrrolidin-3-yloxy]-2,3-dihydro-benzo[1,4]oxazin-4-yl}-nicotinonitrile]
19 | 206 nM | 7 nM | COc1ncc(N2CCOc3ccc(O[C@H]4CCN(C(=O)c5ccc(=O)[nH]c5)C4)cc32)cc1C#N [Example D20, 2-Methoxy-5-{6-[(S)-1-(6-oxo-1,6-dihydro-pyridine-3-carbonyl)-pyrrolidin-3-yloxy]-2,3-dihydro-benzo[1,4]oxazin-4-yl}-nicotinonitrile]
20 | 519 nM | 41 nM | COc1ncc(N2CCOc3ccc(O[C@H]4CCN(C(=O)c5cc[nH]c(=O)c5)C4)cc32)cc1C#N [Example D21, 2-Methoxy-5-{6-[(S)-1-(2-oxo-1,2-dihydro-pyridine-4-carbonyl)-pyrrolidin-3-yloxy]-2,3-dihydro-benzo[1,4]oxazin-4-yl}-nicotinonitrile]
21 | 1020 nM | 24 nM | COc1ncc(N2CCOc3ccc(O[C@H]4CON(C(=O)C5CCOCC5)C4)cc32)cc1C#N [Example D22, 2-Methoxy-5-{6-[(R)-2-(tetrahydro-pyran-4-carbonyl)-isoxazolidin-4-yloxy]-2,3-dihydro-benzo[1,4]oxazin-4-yl}-nicotinonitrile]
